Experimental data as given in patent US7629172B2, “Entrapped binding protein as biosensors” (Becton, Dickinson and Company, priority 2002, dated 2009).
Each block holds one molecule with its values, some of them ahead of it.

Legend:
[1] = Change in fluorescence of reporter-labeled GGBP mutants in solution on glucose addition; assay type: biochemical; details: GGBP-H6 NBD
Protocol: Labeled mutated maltose binding protein S337C MBP with fluorophore reporter probe NBD used herein in accordance with the procedure set forth by Cass, A. et al. (Anal. Chem. 1994, 66, 3840-3847). Fluorescence emission spectra of mutated, labeled protein was measured using an SLM Aminco fluorimeter (Ontario, Canada) with slit settings of 8 and 4 for excitation and settings of 5 and 5 on the MC250 emission monochromator to compare the ligand-binding performance of the entrapped fluorophore-labeled proteins in various matrixes to the performance of the same proteins in solution. The initial fluorescence emission intensity is defined as Io. The relative ratio of the emission intensity maxima in the presence of the protein's respective ligand (If) to the ligand's absence (Io) is defined as ΔF.
This example describes generically the labeling of binding protein with reporter probe. An aliquot of mutant GGBP containing cysteine (4.0 nmol) in PBS was treated with 2 mM dithiothreitol (5 μL, 10 nmol) for 30 min. A stock solution of N,N′-dimethyl-N-(iodoacetyl)-N′-(7-nitrobenz-2-oxa-1,3-diazol-4-yl)ethylenediamine (IANBD amide, 0.5 mg) was prepared in DMSO (100 μL, 11.9 mM) and 3.36 μL (40 nmol) was added to the protein. The reaction proceeded at room temperature for 4 h on a Dynal rotamix in the dark. The labeled protein was purified by gel filtration on a NAP-5 column (Amersham Pharmacia). The labeling rations were determined using an estimated extinction coefficient (50 mM^−1 cm^−1) for GGBP that was calculated in GeneWorks 2.45 (IntelliGenetics), ε478 (IANBD amide)=25 mM^−1cm^−1), and a measurement of O.D. for a standard solution of IANBD amide at 280 nm and 478 nm. The dye concentration in the protein was calculated as […]. The absorbance of protein at 280 nm was calculated as Aprot(280)=Atotal(280)−Adye(280), where Adye(280)=A478×(A280/A478)standard. The concentration of protein was then […].

[2] = Binding constant (Kd) by titration of glucose into labeled protein solution
Protocol: (§1) Binding constants were determined by titration of increasing concentrations of glucose into a protein solution with mixing following each addition of glucose. Slit settings were the same as listed above. The Kd was determined from the following relationships as adapted from Pisarchick and Thompson (1990):
where F is fluorescence intensity, Finf is fluorescence at infinity, F0 is fluorescence at zero glucose, and x is the free concentration of glucose ([Glc]free) as determined by the relationship:
where [Glc]tot and [Prot]tot are the total concentrations of glucose and protein, respectively.

[3] = GGBP L238C/A213C in dialysis membrane on fiber optic, reversibility of signal; assay type: biochemical; details: cycles between PBS buffer and 2 mM, 20 mM glucose; emission 521 nm; FIG. 4
Protocol: This example describes the immobilization of a biosensor of the instant invention into a dialysis membrane matrix and the ability of the matrix to provide reversible and continuous readings. Using a Varian Eclipse fluorimeter with a fiber optic attachment, GGBP L238C/A213C protein (2 μM in PBS buffer) entrapped within a dialysis membrane having a molecular cut-off of 3500 Daltons affixed to the distal end of the fiber. Solutions were prepared containing PBS buffer, 2 mM, and 20 mM glucose in PBS buffer. With the probe in PBS solution, readings were recorded at 0.02 seconds intervals of the emission wavelength 521 nm, followed by insertion of the fiber into the glucose solutions.

[4] = Kd of labeled GGBP entrapped in optimized GMSC sol-gel; assay type: binding; details: protein entrapped in optimized sol-gel formulation
Protocol: as §1
Entrapment Of Binding Proteins In GMSC Sol-Gels Containing Functionalized Silicone Additives (FSA) and Polymers. This example describes the addition of polymer and organic polyol additives to optimize the GMSC sol-gels for entrapping binding proteins to both maintain and enhance their spectral properties upon ligand binding. The binding proteins were labeled with a fluorophore (as described in example 3). The protein solutions were added during the final hydrolysis/gelling step described previously to produce final concentrations of 2-4 μM protein within the sol-gel. […] Polymer additives were evaluated in amounts between 0 to about 30 wt. Functionalized silicone additives (FSA) were evaluated as additives to the GMSC sol-gels in amounts from 0 to about 0.6% mole ratio. […] Fluorescence emission was measured with a Varian Cary Eclipse scanning fluorometer with microwell plate adapter (Varian Instruments, Victoria, Australia). Excitation was at 475 nm and emission recorded from 500 to 600 nm, typically monitoring emission maximum peak fluorescence. […]

[5] = ΔF of labeled GGBP entrapped in optimized GMSC sol-gel (96 well microplate); assay type: biochemical
Protocol: Entrapment Of Binding Proteins In GMSC Sol-Gels Containing Functionalized Silicone Additives (FSA) and Polymers. This example describes the addition of polymer and organic polyol additives to optimize the GMSC sol-gels for entrapping binding proteins to both maintain and enhance their spectral properties upon ligand binding. The binding proteins were labeled with a fluorophore (as described in example 3). The protein solutions were added during the final hydrolysis/gelling step described previously to produce final concentrations of 2-4 μM protein within the sol-gel. The polymer additives and FSA's were obtained from Sigma-Aldrich Chemicals (St. Louis, Mo.). Polymer additives were evaluated in amounts between 0 to about 30 wt. Functionalized silicone additives (FSA) were evaluated as additives to the GMSC sol-gels in amounts from 0 to about 0.6% mole ratio. Thus, rotary evaporation of the GMSC reagent to remove methanol from its storage solution was followed by reconstitution in water in a 1:1 ratio by weight. […] Fluorescence emission was measured with a Varian Cary Eclipse scanning fluorometer with microwell plate adapter (Varian Instruments, Victoria, Australia). Excitation was at 475 nm and emission recorded from 500 to 600 nm, typically monitoring emission maximum peak fluorescence. […]

[6] = GGBP H152C entrapped in UV cross-linked SbQ-PVA hydrogel, glucose challenge; assay type: biochemical
Protocol: This example describes the entrapment of GGBP H152C in UV cross-linked hydrogel matrix and the effect of the matrix on the fluorescence change and binding affinity. In this experiment SbQ-PVA from Polysciences Inc. was added 100 ul of PBS buffer and mixed for one hour to mix in a rotary mixer. 80 ul of this solution was then mixed with 20 ul of labeled protein. Final protein concentration was spectroscopically determined to be 0.15 mg/ml. After mixing, aliquiots were dispensed into 96-well plates and dried in a chamber maintained at 20% humidity for 12 h followed by curing with UV light. Wells containing protein encapsulated in matrix were challenge with 2 ul of 10 mM glucose and compared to protein solution without matrix having equivalent protein loading.

[7] = ΔF of H152 GGBP-H6 NBD entrapped in sol-gel matrixes vs solution; assay type: biochemical; details: ratio If/Io, matrix containing H152 GGBP-H6 NBD
[8] = from 0 to 1 mM Glc at 0.5 μM [NBD]
[9] = GGBP-H6 NBD, solution, measured at 0.1 μM [dye], read-out: Solution Kd
[10] = protein in solution, read-out: Kd (mM) [solution value]

Molecule: D14C: GGBP-H6 NBD mutant, cysteine substituted for aspartic acid at position 14
Δ F(%) [1, 8]: 1%

Molecule: D287C: GGBP-H6 NBD mutant, cysteine substituted for aspartic acid at position 287
Δ F(%) [1, 8]: 4%

Molecule: E149C, A213R, L238S: GGBP-H6 NBD triple mutant
Δ F(%) [1, 8]: 500%
Kd [2, 9]: 35000 µM

Molecule: E149C, L238S: GGBP-H6 NBD double mutant
Kd [2, 9]: 80 µM

Molecule: E149C, N256S: GGBP-H6 NBD double mutant
Δ F(%) [1, 8]: 1%

Molecule: E149C: GGBP-H6 NBD mutant, cysteine substituted for glutamic acid at position 149
Δ F(%) [1, 8]: 300%
Kd [2, 9]: 0.2 µM

Molecule: G74C: GGBP-H6 NBD mutant, cysteine substituted for glycine at position 74
Kd [2, 9]: 0.9 µM

Molecule: H152C, A213S: GGBP-H6 NBD double mutant
Δ F(%) [1, 8]: 100%
Kd [2, 9]: 160 µM

Molecule: H 152 C GGBP-NBD: glucose/galactose binding protein with cysteine at position 152, His6 tag, labeled with NBD
Kd [2, 10]: 70 µM
Kd of the entrapped protein ([6]; SbQ-PVA UV cross-linked hydrogel): comparable to that obtained in solution
response to the analyte (fluorescence) vs solution ([6]; SbQ-PVA hydrogel, 10 mM glucose challenge, FIG. 3): equivalent to that obtained in solution
Kd [4]: 360 µM
ΔF (10 mM Glucose) [7]: 1.53
ΔF (enhancement vs. solution) ([5]; sugar challenge 10 mM glucose): 2.93x

Molecule: K11C: GGBP-H6 NBD mutant, cysteine substituted for lysine at position 11
Δ F(%) [1, 8]: 10%

Molecule: K113C: GGBP-H6 NBD mutant, cysteine substituted for lysine at position 113
Δ F(%) [1, 8]: 15%

Molecule: K137C: GGBP-H6 NBD mutant, cysteine substituted for lysine at position 137
Kd [2, 9]: 0.04 µM

Molecule: L238C: GGBP-H6 NBD mutant, cysteine substituted for leucine at position 238
Δ F(%) ([1]; measured from 0 to 100 mM Glc): +3%

Molecule: S112C, L238S: GGBP-H6 NBD double mutant
Δ F(%) [1, 8]: 6%

Molecule: wild type: wild type E. coli galactose/glucose binding protein (GGBP-H6), intrinsic fluorescence [reference compound]
Kd [2, 9]: 0.2 µM

B1: E149C, M182C, A213C, L238S: GGBP-H6 NBD mutant with four amino acid substitutions (protein, UniProt P0AEE5 24-332, looked up, variant E149C M182C A213C L238S)
D-galactose/methyl-galactoside …: ADTRIGVTIYKYDDNFMSVVRKAIEQDAKAAPDVQLLMNDSQNDQSKQNDQIDVLLAKGVKALAINLVDPAAAGTVIEKARGQNVPVVFFNKEPSRKALDSYDKAYYVGTDSKESGIIQGDLIAKHWAANQGWDLNKDGQIQFVLLKGCPGHPDAEARTTYVIKELNDKGIKTEQLQLDTACWDTAQAKDKMDAWLSGPNANKIEVVIANNDCMAMGAVEALKAHNKSSIPVFGVDASPEALALVKSGALAGTVLNDANNQAKATFDLAKNLADGKGAADGTNWKIDNKVVRVPYVGVDKDNLAEFSKK
modifications: His6 tag, NBD fluorophore label
notes: GGBP-H6 NBD mutant with four amino acid substitutions
Δ F(%) [1, 8]: 200%

More lines, main results first:

Kd [2, 9]: 6000 µM
Kd [2, 10]: 6000 µM
Kd [4]: 2200 µM
Molecule: A213C, L238C: GGBP-H6 NBD double mutant, cysteines at positions 213 and 238
Δ F(%) [1, 8]: 24%
Δ F(%) ([1]; measured from 0 to 100 mM Glc): 67%
reversibility of signal [3]: return of initial signal
ΔF (enhancement vs. solution) ([5]; sugar challenge 100 mM glucose): 2.36x

Kd [2, 9]: 1000 µM
Molecule: E149C, A213R: GGBP-H6 NBD double mutant

Kd [2, 9]: 470 µM
Molecule: E149C, A213S, L238S: GGBP-H6 NBD triple mutant
Δ F(%) [1, 8]: 480%

Kd [2, 9]: 0.2 µM
Molecule: N43C: GGBP-H6 NBD mutant, cysteine substituted for asparagine at position 43
Δ F(%) [1, 8]: 40%

Kd [2, 9]: 0.8 µM
Molecule: R292C: GGBP-H6 NBD mutant, cysteine substituted for arginine at position 292

Kd [2, 9]: 0.1 µM
Molecule: V19C: GGBP-H6 NBD mutant, cysteine substituted for valine at position 19

Kd [2, 9]: 1 µM
Molecule: Y107C: GGBP-H6 NBD mutant, cysteine substituted for tyrosine at position 107
